Laboratory results published in publication PMC13022235 (Nature Communications, 2026).
Positions count from the first letter of the chain named. “Also recorded” adds a separate entry of the source.

How the values were obtained:
mice [1] = conditions: cited from earlier work
hGlyT2^W215F [2] = target: T1, hGlyT2^W215F (Homo sapiens, UniProt Q9Y345, W215F); assay type: cell-based
T1 sequence (Q9Y345 1-797 W215F): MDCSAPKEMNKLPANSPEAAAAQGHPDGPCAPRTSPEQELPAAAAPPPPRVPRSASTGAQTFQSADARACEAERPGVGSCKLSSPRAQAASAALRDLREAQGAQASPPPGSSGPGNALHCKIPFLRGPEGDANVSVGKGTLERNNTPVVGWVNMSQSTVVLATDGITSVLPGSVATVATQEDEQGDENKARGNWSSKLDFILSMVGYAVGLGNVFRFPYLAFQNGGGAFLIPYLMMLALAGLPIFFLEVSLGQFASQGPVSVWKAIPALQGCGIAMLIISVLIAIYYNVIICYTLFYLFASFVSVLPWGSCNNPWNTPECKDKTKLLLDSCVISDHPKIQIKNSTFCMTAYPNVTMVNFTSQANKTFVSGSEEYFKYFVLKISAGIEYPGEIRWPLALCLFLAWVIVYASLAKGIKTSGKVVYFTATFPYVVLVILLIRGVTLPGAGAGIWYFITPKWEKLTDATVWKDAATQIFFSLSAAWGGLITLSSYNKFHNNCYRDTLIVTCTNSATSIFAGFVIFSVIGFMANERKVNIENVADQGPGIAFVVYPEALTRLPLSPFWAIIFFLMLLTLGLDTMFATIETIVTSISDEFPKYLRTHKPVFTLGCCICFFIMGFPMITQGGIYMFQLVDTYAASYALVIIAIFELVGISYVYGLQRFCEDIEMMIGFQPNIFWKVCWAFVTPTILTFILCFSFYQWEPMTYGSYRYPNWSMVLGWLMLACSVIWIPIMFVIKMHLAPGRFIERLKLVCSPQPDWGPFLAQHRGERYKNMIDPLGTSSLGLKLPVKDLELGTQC

hGlyT2^D633E [3] = target: T2, hGlyT2^D633E (Homo sapiens, UniProt Q9Y345, D633E); assay type: cell-based; conditions: D633E mutation
T2 sequence (Q9Y345 1-797 D633E): T1 sequence (Q9Y345 1-797 W215F) with F215W, D633E

hGlyT2^WT [4] = target: T3, hGlyT2^WT (Homo sapiens, UniProt Q9Y345); assay: Reversibility from inhibition; assay type: cell-based
T3 sequence (Q9Y345 1-797): T1 sequence (Q9Y345 1-797 W215F) with F215W

hGlyT2^W215F [5] = target: T1, hGlyT2^W215F; assay: Reversibility from inhibition; assay type: cell-based
hGlyT1^WT = target: T4, hGlyT1^WT (Homo sapiens, UniProt P48067); assay: Two-electrode voltage clamp, GlyT1 selectivity test in oocytes; assay type: cell-based; conditions: 10 µM
T4 sequence (P48067 1-706): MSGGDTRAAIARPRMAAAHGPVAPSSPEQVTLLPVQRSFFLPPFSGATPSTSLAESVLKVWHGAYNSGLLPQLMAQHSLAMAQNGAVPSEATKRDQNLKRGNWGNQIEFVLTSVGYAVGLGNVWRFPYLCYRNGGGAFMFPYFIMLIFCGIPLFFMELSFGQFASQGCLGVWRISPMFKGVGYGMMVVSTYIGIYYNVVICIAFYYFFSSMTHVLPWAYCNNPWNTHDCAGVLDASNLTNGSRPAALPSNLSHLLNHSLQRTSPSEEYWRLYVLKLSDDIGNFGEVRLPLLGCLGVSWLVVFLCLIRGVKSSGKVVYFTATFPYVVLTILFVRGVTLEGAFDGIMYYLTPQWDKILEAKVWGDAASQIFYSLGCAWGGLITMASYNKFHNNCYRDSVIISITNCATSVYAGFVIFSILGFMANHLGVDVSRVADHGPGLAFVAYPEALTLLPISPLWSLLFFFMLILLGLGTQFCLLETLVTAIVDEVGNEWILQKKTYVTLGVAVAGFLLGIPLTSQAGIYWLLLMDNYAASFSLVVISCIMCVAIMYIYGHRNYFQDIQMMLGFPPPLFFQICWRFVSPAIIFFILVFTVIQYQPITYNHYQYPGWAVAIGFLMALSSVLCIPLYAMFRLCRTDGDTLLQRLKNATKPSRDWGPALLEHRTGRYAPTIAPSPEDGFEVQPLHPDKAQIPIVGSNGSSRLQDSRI

hGlyT2^WT [6] = target: T3, hGlyT2^WT; assay type: cell-based; conditions: glycine dose-responses with RPI-GLYT2-82
hGlyT2^D633E [7] = target: T2, hGlyT2^D633E; assay: Reversibility from inhibition; assay type: cell-based; conditions: GlyT2^D633E
[8] = PK Study 2: in-life plasma and CNS drug exposure after 50 mg/kg i.p.; assay type: in vivo, male C57BL/6 mice; conditions: 30 min
[9] = test system: chronic constriction injury (CCI) mice; assay: CCI model, mechanical allodynia; assay type: in vivo, mouse
[10] = test system: chronic constriction injury (CCI) mice; assay: CCI model, cold allodynia; assay type: in vivo, mouse; conditions: for reduction of cold allodynia vs vehicle: acetone
[11] = test system: partial sciatic nerve ligation (PSNL) mice; assay: PSNL model, mechanical allodynia; assay type: in vivo, mouse; conditions: 50 mg/kg i.p.
naïve mice = assay: Accelerating rotarod, motor coordination; assay type: in vivo, mouse
mice [12] = assay: Side effect scoring; assay type: in vivo, mouse; conditions: 250 mg/kg i.p.
naïve, uninjured mice = assay: Whole-body plethysmography; assay type: in vivo, mouse
male C57BL/6 J mice = assay: Conditioned place preference; assay type: in vivo, mouse
hDAT = hDAT (Homo sapiens, UniProt Q01959); assay: Cerep binding assay, displacement of 3H-BTCP; conditions: 10 μM
Chain of hDAT (Q01959 whole entry): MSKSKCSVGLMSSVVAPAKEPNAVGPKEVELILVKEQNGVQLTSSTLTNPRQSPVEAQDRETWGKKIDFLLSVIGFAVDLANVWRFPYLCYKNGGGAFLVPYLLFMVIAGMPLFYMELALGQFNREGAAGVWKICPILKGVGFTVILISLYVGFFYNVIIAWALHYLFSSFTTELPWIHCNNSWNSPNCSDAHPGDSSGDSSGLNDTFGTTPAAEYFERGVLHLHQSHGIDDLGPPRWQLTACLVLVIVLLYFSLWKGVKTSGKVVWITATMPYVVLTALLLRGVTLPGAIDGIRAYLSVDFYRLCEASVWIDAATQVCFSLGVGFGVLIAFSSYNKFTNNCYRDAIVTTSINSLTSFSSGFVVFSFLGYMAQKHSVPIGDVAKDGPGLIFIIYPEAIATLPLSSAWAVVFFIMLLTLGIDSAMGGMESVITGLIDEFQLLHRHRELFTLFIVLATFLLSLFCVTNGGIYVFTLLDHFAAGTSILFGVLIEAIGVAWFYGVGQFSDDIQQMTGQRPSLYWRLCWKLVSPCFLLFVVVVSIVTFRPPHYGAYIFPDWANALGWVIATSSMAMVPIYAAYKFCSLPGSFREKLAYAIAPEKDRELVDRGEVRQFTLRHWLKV

hNET = hNET (Homo sapiens, UniProt P23975); assay: Cerep binding assay, displacement of 3H-nisoxetine; conditions: 10 μM
Chain of hNET (P23975 whole entry): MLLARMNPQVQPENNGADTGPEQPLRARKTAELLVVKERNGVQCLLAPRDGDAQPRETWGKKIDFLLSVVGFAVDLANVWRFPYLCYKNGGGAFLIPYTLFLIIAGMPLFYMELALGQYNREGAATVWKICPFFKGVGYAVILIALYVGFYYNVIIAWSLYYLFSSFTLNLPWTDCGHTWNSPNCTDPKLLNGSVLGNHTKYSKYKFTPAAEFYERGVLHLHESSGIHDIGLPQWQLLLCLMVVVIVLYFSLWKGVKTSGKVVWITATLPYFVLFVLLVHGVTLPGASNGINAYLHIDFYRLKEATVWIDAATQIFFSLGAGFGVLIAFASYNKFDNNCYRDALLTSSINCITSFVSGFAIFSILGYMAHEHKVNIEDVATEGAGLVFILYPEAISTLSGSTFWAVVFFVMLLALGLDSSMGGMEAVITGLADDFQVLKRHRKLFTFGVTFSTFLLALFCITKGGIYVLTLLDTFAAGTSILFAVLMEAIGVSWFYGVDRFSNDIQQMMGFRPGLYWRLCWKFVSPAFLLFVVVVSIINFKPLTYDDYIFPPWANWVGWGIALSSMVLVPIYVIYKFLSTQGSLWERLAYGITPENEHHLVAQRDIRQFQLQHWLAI

GlyT2 = conditions: read-out: IC50 for GlyT2; cited from earlier work

## CCCCCCCC/C=C\CCCCCCCC(=O)N[C@H](CCCCN)C(=O)O [oleoyl-D-lysine]
Mice [1]
  effects on inflammatory and acute nociceptive pain thresholds: no effects on inflammatory and acute nociceptive pain thresholds

## COc1cc(C(=O)NCC2(N(C)C)CCCC2)cc(OC)c1OCc1ccccc1 [ORG25543, 4-(benzyloxy)-N-{[1-(dimethylamino)cyclopentyl]methyl}−3,5-dimethoxybenzamide]
hGlyT2^W215F [2]; W215F mutation
  decrease in potency of inhibition vs WT: ~ three-fold
hGlyT2^D633E [3]
  decrease in potency of inhibition vs WT: ~ 14 fold
hGlyT2^WT [4]; hGlyT2, washout 30 min
  reversibility of inhibition: prolonged inhibitory effects with minimal restoration of glycine-induced currents
hGlyT2^WT [4]; hGlyT2^WT, 30 minutes washout
  currents restored, % of pre-inhibitor levels: 12.5%
hGlyT2^W215F [5]; hGlyT2^W215F
  effect of mutation on washout: significantly increased the rate of ORG25543 washout
Mice [1]; 50 mg/kg
  mechanical allodynia: reversed mechanical allodynia
  side effects: near-complete loss of rotarod performance, seizures and in one case, lethality
Mice [1]
  effects on inflammatory and acute nociceptive pain thresholds: no effects on inflammatory and acute nociceptive pain thresholds

## CN(C)C1(CNC(=O)c2ccc3c(c2)CCN3C(=O)c2ccccc2)CCOCC1 [RPI-GLYT2-82, 1-benzoyl-N-((4-(dimethylamino)tetrahydro-2H-pyran-4-yl)methyl)indoline-5-carboxamide]
hGlyT2^W215F [2]
  IC50: > 30000 nM
hGlyT2^D633E [3]
  decrease in potency of inhibition vs WT: > 18 fold
hGlyT1^WT
  effect on GlyT1: minimal effect on GlyT1
hGlyT2^WT [6]
  mechanism of inhibition: non-competitive inhibitor
hGlyT2^W215F [5]; GlyT2^W215F
  washout: almost immediate
hGlyT2^D633E [7]
  washout: almost immediate
[8]
  Cu,b, calculated unbound concentration in brain: 597.89 nM
[9]; 50 mg/kg i.p.
  efficacy against mechanical allodynia vs vehicle: significant at 2 and 3 hours post-injection compared to vehicle
[9]; 100 mg/kg i.p.
  efficacy against mechanical allodynia vs vehicle: showed a similar trend at 2 and 3 hours
[9]; von Frey, 50 and 100 mg/kg i.p.
  anti-allodynia, time of maximum efficacy: maximum efficacy between 90 min and 3 hours post-administration
[10]; 50 and 100 mg/kg i.p.
  time of peak anti-allodynia effects, cold allodynia: ≤ 2 h
  reduction of cold allodynia vs vehicle: significantly reduced cold allodynia between 0.5 and 6-hours postinjection compared to vehicle
[11]
  reduction of mechanical allodynia vs vehicle: significant at 90 minutes and 2-hours post-injection compared to vehicle
naïve mice; 50 mg/kg, rotarod, grip strength, sedation
  neuromotor effects / muscle weakness: No deficits were observed; also recorded: not associated with adverse neuromotor effects or muscle weakness
naïve mice; 250 mg/kg i.p.
  initial reduction in baseline rotarod performance: 61%
Mice [12]
  sedation: transient sedation, which was most apparent in the first 15–30 minutes and fully recovered by 90 minutes
naïve, uninjured mice; 50 mg/kg
  respiration: did not change respiration frequency, minute volume (MVb), or tidal volume (TVb)
naïve, uninjured mice; 250 mg/kg i.p.
  respiration: transient changes in respiratory frequency and MVb in the first hour, and TVb in the first 30 min
Male C57BL/6 J mice; 50 and 150 mg/kg i.p.
  conditioned place preference: no significant preference
hDAT
  displacement of 3H-BTCP from hDAT / inhibition: ~ 20%
hNET
  displacement of 3H-nisoxetine from hNET / inhibition: < 5%

## CN1CC[C@]23c4c5ccc(O)c4O[C@H]2[C@@H](O)C=C[C@H]3[C@H]1C5 [Morphine, reference compound]
Male C57BL/6 J mice; morphine 10 mg/kg i.p.
  conditioned place preference: significant increase in preference for the paired chamber

## CCCCOc1c(OC)cc(C(=O)NCC2(N(C)C)CCOCC2)cc1OC [opiranserin]
GlyT2
  IC50: 860 nM

## NCC1(CC(=O)O)CCCCC1 [Gabapentin, reference compound]
[10]; gabapentin 100 mg/kg
  reduction of cold allodynia vs vehicle: significant at 1-6 hours
